Laboratory results reported in ChEMBL document CHEMBL1201862, “PubChem BioAssay data set” (2004).
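These data come from cells grown in 96-well plates and exposed to compound for 48 hours at five concentrations. GI50 marks 50% less growth.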 The source made the active and inactive calls. Cut-off read from the data, not from the text of the source: active = GI50 up to about 1.1 µM and inactive = higher.

Experiments:
Experiment in all cases: NCI tumour cell line growth inhibition, 48 h
SK-MEL-28 = test system: SK-MEL-28
RXF 393 = test system: RXF 393
SW-620 = test system: SW-620
CCRF-CEM = test system: CCRF-CEM
786-0 = test system: 786-0
NCI-H460 = test system: NCI-H460
HT-29 = test system: HT-29
NCI-H522 = test system: NCI-H522
ACHN = test system: ACHN
OVCAR-8 = test system: OVCAR-8
DMS-273 = test system: DMS-273
HOP-62 = test system: HOP-62
Malme-3M = test system: Malme-3M
OVCAR-4 = test system: OVCAR-4
SF-295 = test system: SF-295
OVCAR-5 = test system: OVCAR-5

Measured: GI50

O=[PH](O)c1ccsc1
inactive: SK-MEL-28 > 100 µM | RXF 393 > 100 µM | SW-620 > 100 µM | CCRF-CEM > 100 µM | 786-0 > 100 µM | NCI-H460 > 100 µM | HT-29 55 µM | NCI-H522 > 100 µM | ACHN > 100 µM | OVCAR-8 > 100 µM | DMS-273 > 100 µM | HOP-62 > 100 µM

O=C(CCc1n[nH]c(=S)o1)Nc1cc(Cl)c(Cl)cc1Cl
inactive: SK-MEL-28 60.1 µM | SW-620 12.9 µM | Malme-3M > 100 µM | OVCAR-4 > 100 µM | CCRF-CEM 31.6 µM | 786-0 22.5 µM | NCI-H460 46.6 µM | SF-295 > 100 µM | OVCAR-5 54.3 µM | HT-29 25.8 µM | NCI-H522 71.9 µM | ACHN 40.5 µM | OVCAR-8 51.2 µM | DMS-273 24.3 µM | HOP-62 50.8 µM

O=C(CN(c1ccccc1)c1ccccc1)n1nnc2ccccc21
inactive: SK-MEL-28 37.2 µM | RXF 393 26.1 µM | SW-620 30 µM | Malme-3M 46.3 µM | CCRF-CEM 35 µM | 786-0 39.2 µM | NCI-H460 70.8 µM | SF-295 74.8 µM | OVCAR-5 > 100 µM | HT-29 44.1 µM | NCI-H522 21.4 µM | ACHN 36.5 µM | OVCAR-8 39.3 µM | DMS-273 39.9 µM | HOP-62 > 100 µM

CC(C)CC(NC(=O)OC(C)(C)C)C(=O)Nc1ccc(Nc2nc(F)nc(-c3c4ccccc4c4n3CCS4)n2)cc1 (centres undefined)
inactive: SK-MEL-28 23.5 µM | RXF 393 34 µM | SW-620 16.1 µM | Malme-3M 21.2 µM | CCRF-CEM 3.65 µM | 786-0 19.8 µM | NCI-H460 14.8 µM | SF-295 20.9 µM | OVCAR-5 22.4 µM | HT-29 19.2 µM | NCI-H522 15.3 µM | ACHN 24.3 µM | OVCAR-8 22 µM | DMS-273 16.9 µM | HOP-62 21.2 µM

CCOc1ccc([Se][Se]c2ccc(OCC)cc2)cc1
inactive: SK-MEL-28 > 100 µM | RXF 393 35.5 µM | SW-620 > 100 µM | Malme-3M > 100 µM | OVCAR-4 > 100 µM | 786-0 > 100 µM | NCI-H460 > 100 µM | SF-295 > 100 µM | OVCAR-5 18.8 µM | NCI-H522 46 µM | OVCAR-8 > 100 µM | DMS-273 79.1 µM

COc1cc2c(cc1O)[C@H](C)C(c1ccccc1OC)O2 (some centres undefined)
inactive: SK-MEL-28 6.41 µM | RXF 393 10.9 µM | SW-620 3.27 µM | Malme-3M 4.14 µM | OVCAR-4 8.32 µM | CCRF-CEM 4.21 µM | 786-0 5.61 µM | NCI-H460 2.08 µM | SF-295 3.2 µM | OVCAR-5 75.2 µM | HT-29 6.7 µM | NCI-H522 3.01 µM | ACHN 4.34 µM | OVCAR-8 10.3 µM | DMS-273 2.67 µM

CC(C)C1NC(=O)[C@H](C)OC(=O)[C@@H](C(C)C)NC(=O)[C@@H](C)OC(=O)C(C(C)C)NC(=O)[C@H](C)OC1=O (some centres undefined)
inactive: SK-MEL-28 > 100 µM | SW-620 > 28.1 µM | Malme-3M > 100 µM | OVCAR-4 > 67.1 µM | CCRF-CEM > 100 µM | 786-0 20.9 µM | NCI-H460 > 79.4 µM | SF-295 > 100 µM | OVCAR-5 > 100 µM | HT-29 > 100 µM | NCI-H522 > 100 µM | ACHN > 100 µM | OVCAR-8 > 100 µM | DMS-273 59.2 µM | HOP-62 > 100 µM
